Test: dissolution into hexane solution at room temperature
Format: physicochemical
Experimental: Also, experiments were carried out in which the polyacene derivative of example 1, the polyacene derivative of example 2, the polyacene derivative of example 3 and the polyacene derivative of example 4 were respectively dissolved into hexane solution at room temperature. […] Also, the polyacene derivative of the inventive example 4 of which number of the substituents is less than that of the polyacene derivative of example 2 by four was dissolved into the hexane solution.

| Compound | solubility in hexane solution |
| --- | --- |
| CCCCc1c(C(=O)OC)c(C(=O)OC)c(CCCC)c2cc3c(CCCC)c4cc5c(CC)c(CC)c(CC)c(CC)c5cc4c(CCCC)c3cc12 [example 1, 2,3-bis methoxycarbonyl-1,4,6,13-tetrabutyl-8,9,10,11-tetraethyl pentacene] | dissolved |
| CCc1c(CC)c(CC)c2cc3c(CC)c4cc5c(CC)c(C(=O)OC)c(C(=O)OC)c(CC)c5cc4c(CC)c3cc2c1CC [example 2, 2,3-bis methoxycarbonyl-1,4,6,8,9,10,11 13-octaethyl pentacene] | hardly dissolved |
| CCCc1c(C(=O)OC)c(C(=O)OC)c(CCC)c2cc3c(CCC)c4cc5c(CC)c(CC)c(CC)c(CC)c5cc4c(CCC)c3cc12 [example 3, 2,3-bis methoxycarbonyl-8,9,10,11-tetra ethyl-1,4,6,13-tetra propyl pentacene] | dissolved |
| CCCCc1c(C(=O)OC)c(C(=O)OC)c(CCCC)c2cc3c(CCCC)c4cc5ccccc5cc4c(CCCC)c3cc12 [example 4, 2,3-bis methoxycarbonyl-1,4,6,13-tetrabuyl pentacene] | dissolved |

— patent US8115197B2, “Organic semiconductor material, organic semiconductor thin film and organic semiconductor device” (Sony Corporation, priority 2005, dated 2012)
